Reference: patent US9750784B2 (priority 2013, dated 2017)
One block for each compound: values may come before it. Square brackets hold non-standard residues; d marks the D form. Peptide text beside a SMILES is read from it. * marks the point of attachment. Sta = CC(C)C[C@H](N)[C@@H](O)CC(=O)O; Isovaleryl = CC(C)CC(=O)*

How the values were obtained:
[1] = In vivo joint microdialysis in guinea pig knee joint; set-up: species or system guinea pigs (Dunkin Hartley); conditions: 1 mg/joint in 50 μl as suspension, microdialysis eluates
Method: (§1) For these investigations, microdialysis probes from CMA (reference number 000082; CMA 7; microdialysis sample 1 mm 3/pkg) fitted with a cuprophane membrane and having a pore size of 6 kDa were used. The eluate flow rate was 0.5 μl/min.

[2] = Toxicity and genotoxicity
[3] = tested on: ACLT tMx arthrosis model; assay: Efficacy in vivo in arthrosis, ACLT tMx model; set-up: species or system rats; conditions: rat ACLT tMx, 1 mg in 30 μl intraarticular, 6 weeks, histological assessment
Method: Rats were selected as experimental animals. After shaving and disinfection, the operation area is opened by means of a medial skin cut with a length of about 1 cm. The knee joint capsule is prepared and the medial patellar ligament is exposed. After opening of the joint capsule, cutting of the medial parapatellar ligaments and lateral displacement of the patella, the anterior cruciate ligament is cut using a curved knife with a blunt end (ACLT=anterior cruciate ligament transection). The anterior and posterior ligaments holding the meniscus in place are subsequently prepared and cut and the meniscus is removed tMx (resection of the medial meniscus). After repositioning of the patella, the joint is finally rinsed with sterile saline solution in order to remove any blood coagulum that may have formed. The patella is repositioned, and the medial patellar ligament is re-fixed by means of continuous suture with sealing of the capsule. The muscles are likewise sutured. The skin is subsequently closed by means of single stitches. The operation duration is about 10 minutes. The postoperative trial duration was 6 weeks. For intraarticular injection, the animals are anaesthetised with 1.5-2% by vol. of isoflurane. […] Two sections in the region of the exposure zone were selected from each animal and assessed by two experienced people using an assessment system. […]

[4] = tested on: carrageenan-induced inflammation of the rat knee joint; assay: Anti-hyperalgesic action in animals (carrageenan injected intraarticularly into rat knee joint, Hargreaves test); format: in vivo; conditions: intraarticular 30 minutes before CAR
Method: In order to induce an inflammation reaction, a carrageenan solution (CAR, 1%, 50 μl) was injected intraarticularly on one side into a rat knee joint. The uninjected side was used for control purposes. Six animals per group were used. The […] was determined by means of a micrometer screw (medial-lateral on the knee joint), and the thermal hyperalgesia was determined by means of a directed infrared light source by the Hargreaves method (Hargreaves et al. 1988) on the sole of the foot. Since the site of inflammation (knee joint) is different from the site of measurement (sole of the paw), use is made here of the term secondary thermal hyperalgesia, the mechanisms of which is of importance for the discovery of effective analgesics.
Experimental description of thermal hyperalgesia (Hargreaves test): the experimental animal is placed in a plastic chamber on a quartz sheet. Before testing, the experimental animal is firstly given about 5-15 minutes time to familiarise itself with the environment. […] Light reflected by the paw is recorded as long as the experimental animal sits still. Withdrawal of the paw interrupts this reflection, after which the infrared light source is switched off and the time from switching on to switching off is recorded. […]

[5] = In vitro microdialysis in bovine synovial fluid; format: in vitro ADME; conditions: 3 mg per ml, 6 kDa membrane
Excerpt: Since the synovial fluid on the one hand represents a complex matrix for the analytical determination of peptides and on the other hand only the free, i.e. non-protein-bound medicament fraction is relevant for the action, the microdialysis method was employed. The eluate obtained from the microdialysis enables analysis of free medicament levels from the complex matrix of the synovial fluid. The reason for this is that a barrier membrane (microdialysis membrane) which only molecules up to a certain size is able to pass through is employed. This “pore size” determines the concentration of the medicament in the eluate besides the flow rate of the eluate and the free concentration of medicament present in the synovial fluid as driving force for material exchange.
as §1
Firstly, release kinetics in bovine synovial fluid were investigated and compared with triamcinolone (Triam Injekt® 20 mg)—a medicament approved for intraarticular injection. […] 3 mg of medicament per ml of synovial fluid were employed in a glass vessel, which corresponds approximately to the concentration conditions after intraarticular injection into the knee joint.

[6] = Pharmacokinetic data after intraarticular injection; format: in vivo, Lister hooded rats; conditions: for Average joint diameter [mm]: rat knee, about 700 μg suspension intraarticular
Method: For this study (KK-Rat-12-003), 14 male Lister hooded rats were used. All rats were given a single intraarticular injection into both knee joints at time “0”. An injection consisted of 30 μl in which about 700 μg of compound were homogeneously suspended (suspension=compound in 0.5% Methocel K4M with 0.25% Tween20 in PBS). The suspension was administered via a 25 G cannula. […] At each point in time indicated in Table 2, animals were sacrificed, the knee joints were prepared (removal of skin and muscle tissue) and frozen for further processing.
The deep-frozen joints were briefly thawed, comminuted as well as possible using bone scissors, and 4 times the volume of 80% ethanol was subsequently added. The mixture was subsequently homogenised using an Ultraturrax, the extract was shaken at RT for 20 min and then stored at −20° C. for at least 30 min. The mixture was then centrifuged at 13,000 rpm for 5 min, a 10 μl aliquot of the supernatant was diluted 1:5000 with internal standard solution, transferred into a PCR plate and analysed.
20 μl of internal standard solution were added to 20 μl of plasma, 100 μl of methanol were added, and the mixture was shaken for 5 min. The extracts were then stored at −20° C. for at least 30 min and subsequently centrifuged at 13,000 rpm for 5 min. 80 μl of the supernatant were transferred into a PCR plate and analysed.
All samples were analysed with the aid of a UPLC-MS/MS system.

[7] = Stability of pepstatin in bovine synovial fluid; format: in vitro ADME; conditions: pooled bovine synovial fluid, 37° C., initial 1 μM
Method: In order to check the stability of individual compounds, a pool of 4 different bovine synovial fluids is mixed. To this end, about 1 ml per SF are used. The mixture is prepared directly in a 5 ml glass vessel in order to minimise any absorption effects. The SFs are mixed thoroughly, but carefully. No air bubbles or foam should form. To this end, a vortex unit is used at the lowest speed. The compounds to be tested are tested in an initial concentration (unless requested otherwise) of 1 μM. After addition of the substance, the batch is again mixed thoroughly and carefully. For visual monitoring, all SF batches are photographed, and the pictures are filed in the eLabBio file for the corresponding experiment. The batches are incubated in the incubator for 48 h at 37° C. and 7.5% CO2.
The sampling is carried out after the pre-agreed times (unless requested otherwise, see below). 4×200 μl of the SF are removed from the mixture at each point in time and transferred directly into 0.5 ml “low-binding” Eppendorf vessels. […]
The samples are stored in “low-binding” Eppendorf vessels at −20° C. The samples are subsequently measured quantitatively. […]
The concentrations measured (ng/ml) are plotted against time in a graph (Graph Pad Prism®). The percentage stability of the substance is determined here. […]

[8] = molecular target: T1, cathepsin D isolated from the human liver (Homo sapiens, UniProt P07339); assay: In-vitro fluorescence assay for identification of cathepsin D inhibitors; format: biochemical; conditions: pH 5.5
T1 construct: cathepsin D isolated from the human liver (Sigma-Aldrich); purchased Sigma-Aldrich; host or cells: human liver (tissue-derived)
T1 sequence (P07339 65-161 limits assumed): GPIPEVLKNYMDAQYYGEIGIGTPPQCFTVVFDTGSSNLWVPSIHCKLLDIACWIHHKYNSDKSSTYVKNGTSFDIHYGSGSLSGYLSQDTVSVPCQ
T1 sequence (P07339 169-412 limits assumed): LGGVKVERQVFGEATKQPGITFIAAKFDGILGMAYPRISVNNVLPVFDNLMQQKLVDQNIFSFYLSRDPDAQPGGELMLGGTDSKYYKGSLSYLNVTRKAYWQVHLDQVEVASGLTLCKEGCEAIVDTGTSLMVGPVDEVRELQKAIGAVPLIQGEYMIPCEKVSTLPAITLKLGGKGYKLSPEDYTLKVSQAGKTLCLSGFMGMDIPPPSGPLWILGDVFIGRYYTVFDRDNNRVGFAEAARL
Method: In order to identify modulators of cathepsin D activity, a continuous enzymatic test was carried out with a synthetic peptide which carries a fluorescent group (MCA=(7-methoxycoumarin-4-yl)acetyl) which is quenched by energy transfer from a Dpn (2,4 dinitrophenyl) group on the same molecule, in Greiner 384-well nb microtitre plates. Cleavage of the peptidic substrate by cathepsin D causes an increase in the fluorescence intensity. In order to determine the efficacy of substances, the time-dependent increase in the fluorescence intensity in the presence of the substance was compared with the time-dependent increase in fluorescence in the absence of substances. […] The enzyme employed was cathepsin D isolated from the human liver (Sigma-Aldrich) in a final concentration of 1.4 nM. The test was carried out in 100 mM sodium acetate buffer, 1.25% (v/v) of DMSO, 0.25% (w/v) of Chaps, pH 5.5. […] After carrying out a starting-point fluorescence measurement (excitation wavelength 340 nm/emission wavelength 450 nm) using an Envision multilabel reader (Perkin Elmer), the reaction was incubated at room temperature for 60 min. The amount of peptide fragment cleaved off during the reaction time was subsequently measured by determination of the increase in the fluorescence intensity at 450 nm (excitation wavelength 340 nm).

[9] = tested on: cartilage explant cultures; conditions: pH 5.5, explant cultures (mouse, cow or human); cited from earlier work
[10] = Pharmacokinetic data after intravenous and oral administration; format: in vivo, Wistar rats; conditions: Wistar rat
Method: The test substances were dissolved in DMSO/PEG200/water (2/60/38 v/v) with a final concentration of 0.8 mg/ml, and a dose of 0.2 mg/kg i.v. and 0.5 mg/kg orally was administered. […] The blood samples were collected in centrifuge tubes containing Li heparin and centrifuged at about 10,000 g at 4° C. for 3 min. The plasma obtained therefrom was immediately frozen at −20° C. and stored until analysis. The plasma concentrations were determined by means of a standard LC-MS/MS method. The pharmacokinetic parameters (Clp, Vss, T1/2, F) were determined via an NCA analysis.

[11] = Cartilage penetration; format: in vitro ADME
[12] = pooled synovial fluid of patients, Powell et al. Table II; cited from earlier work

time after intraarticular injection up to which significant levels are detectable in the joint [1]: up to 14 days
levels of unbound medicament in microdialysis eluate [5]: very high levels
Average joint diameter [mm] ([6]; 0 days after injection): 10.08 mm
Average joint diameter [mm] ([6]; 1 day after injection): 10.88 mm
Average joint diameter [mm] ([6]; 2 days after injection): 10.50 mm
Average joint diameter [mm] ([6]; 4 days after injection): 10.12 mm
Average joint diameter [mm] ([6]; 7 days after injection): 10.35 mm
Average joint diameter [mm] ([6]; 9 days after injection): 10.14 mm
Average joint diameter [mm] ([6]; 11 days after injection): 10.37 mm
Average joint diameter [mm] ([6]; 13 days after injection): 10.24 mm
Average joint diameter [mm] ([6]; 15 days after injection): 10.45 mm
Average joint diameter [mm] ([6]; 20 days after injection): 10.18 mm
Average joint diameter [mm] ([6]; 27 days after injection): 10.50 mm
systemic exposure ([6]; rat, intraarticular administration of a suspension): very low
time after administration up to which detectable in the plasma ([6]; rat, intraarticular suspension, very low concentration): up to 28 days
period of stability in synovial fluid [7]: at least two weeks
inhibition of cathepsin D (in words) [8]: nanomolar range
plasma concentrations after oral administration ([10]; 0.5 mg/kg orally): below the detection limit
clearance ([10]; i.v. 0.2 mg/kg): > 100 % liver blood flow
distribution volume ([10]; i.v. 0.2 mg/kg): average
half-life ([10]; male, plasma, iv, i.v. 0.2 mg/kg): ~8.4 min
cartilage penetration [11]: good
Compound: CC(C)CC(=O)N[C@H](C(=O)N[C@H](C(=O)N[C@@H](CC(C)C)[C@@H](O)CC(=O)N[C@@H](C)C(=O)N[C@@H](CC(C)C)[C@@H](O)CC(=O)O)C(C)C)C(C)C [Pepstatin, (3S,4S)-3-hydroxy-4-[(S)-2-((3S,4S)-3-hydroxy-6-methyl-4-{(S)-3-methyl-2-[(S)-3-methyl-2-(3-methyl-butyrylamino)butyrylamino]butyrylamino}heptanoylamino)-propionylamino]-6-methylheptanoic acid] (Isovaleryl-VV[Sta]A[Sta]-OH)
toxicity or genotoxicity [2]: no measurable toxicity or genotoxicity
efficacy in vivo in arthrosis [3]: significant efficacy
reduction of thermal hyperalgesia ([4]; rat, Hargreaves test): able to reduce the extent of thermal hyperalgesia as a function of the dose
changes of in-life parameters (body weight, knee swelling, relieving postures) ([6]; rat, single intraarticular injection of about 700 μg suspension into both knee joints): No peculiarities
inhibition of autodigestion of the cartilage [9]: inhibited virtually completely

Compound: C[C@]12C=CC(=O)C=C1CC[C@H]1[C@@H]3C[C@@H](O)[C@](O)(C(=O)CO)[C@@]3(C)C[C@H](O)[C@@]12F [TAC, Triamcinolone, reference compound]
reduction of CAR-induced swelling ([4]; rat knee joint, TAC 10 μg/joint): capable of reducing

Compound: CC(C)c1nc(CN(C)C(=O)N[C@H](C(=O)N[C@@H](Cc2ccccc2)C[C@H](O)[C@H](Cc2ccccc2)NC(=O)OCc2cncs2)C(C)C)cs1 [ritonavir, reference compound]
inhibition of autodigestion of the cartilage [9]: inhibited virtually completely

Compound: pertussis toxin
half life in synovial fluid [12]: barely two days
